Tested on: Influenza A virus
Experiment: Antiviral activity against oseltamivir-resistant Influenza A virus A/H1N1/pdm09 infected in MDCK cells assessed as inhibition of plaque formation measured after 2 days
Settings: 48 h

## CCC(CC)O[C@@H]1C=C(C(=O)O)C[C@H](NCc2ccc(OCc3cccc(B(O)O)c3)cc2F)[C@H]1NC(C)=O
  EC50: 170 nM

## CCC(CC)O[C@@H]1C=C(C(=O)O)C[C@H](NCc2ccc(OCc3cccc(B(O)O)c3)cc2C)[C@H]1NC(C)=O
  EC50: 30 nM

## CCC(CC)O[C@@H]1C=C(C(=O)O)C[C@H](NCc2ccc(OCc3ccc(B(O)O)cc3)cc2Cl)[C@H]1NC(C)=O
  EC50: 400 nM

## CCC(CC)O[C@@H]1C=C(C(=O)O)C[C@H](NCc2ccc(OCc3ccc(B(O)O)cc3)cc2F)[C@H]1NC(C)=O
  EC50: 580 nM

## CCC(CC)O[C@@H]1C=C(C(=O)O)C[C@H](NCc2c(C)cc(OCc3cccc(B(O)O)c3)cc2C)[C@H]1NC(C)=O
  EC50: 150 nM

## CCC(CC)O[C@@H]1C=C(C(=O)O)C[C@H](NCc2ccc(OCc3ccc(B(O)O)cc3)cc2C)[C@H]1NC(C)=O
  EC50: 40 nM

## CCC(CC)O[C@@H]1C=C(C(=O)O)C[C@H](NCc2ccc(OCc3cccc(B(O)O)c3)cc2Cl)[C@H]1NC(C)=O
  EC50: 30 nM

## CCC(CC)O[C@@H]1C=C(C(=O)O)C[C@H](N)[C@H]1NC(C)=O [OSELTAMIVIR CARBOXYLATE]
  EC50: > 20000 nM

— ChEMBL document CHEMBL6078687 (J Med Chem, 2024)
